Data taken from the NIST ThermoML archive (doi:10.1021/je034208m).
Several values for one entry are separate records, joined by “and”; a condition that tells them apart may be missing. Identical values can stand only once. Numbers after ± are expanded uncertainties.

experiment: xn = mol fraction of the nth substance listed; conditions: 293.15 K; 101.33 kPa; Liquid; Sing-around technique in a fixed-path interferometer; x2 = 0

speed of sound [m/s]	SMILES
1254 ± 1	CCCCCCCCCC [decane] + CCCC(C)O
1297 ± 1	CCCCCCCCCCCC [dodecane] + CCCC(C)O
1193 ± 1	CCCCCCCC [octane] + CCCC(C)O

same assay, conditions: 293.15 K; 101.33 kPa; Liquid; x2 = 0

mass density [kg/m3]	viscosity [mPa·s]	SMILES
729.89 ± 0.8	0.911 ± 0.016	CCCCCCCCCC [decane] + CCCC(C)O
748.54 ± 0.77	1.454 ± 0.024	CCCCCCCCCCCC [dodecane] + CCCC(C)O
702.57 ± 0.78	0.538 ± 0.01	CCCCCCCC [octane] + CCCC(C)O

same assay, conditions: 298.15 K; 101.33 kPa; Liquid; Sing-around technique in a fixed-path interferometer; x2 = 0

speed of sound [m/s]	SMILES
1235 ± 1	CCCCCCCCCC [decane] + CCCC(C)O
1278 ± 1	CCCCCCCCCCCC [dodecane] + CCCC(C)O
1173 ± 1	CCCCCCCC [octane] + CCCC(C)O

same assay, conditions: 298.15 K; 101.33 kPa; Liquid; x2 = 0

mass density [kg/m3]	viscosity [mPa·s]	SMILES
726.12 ± 0.8	0.845 ± 0.015	CCCCCCCCCC [decane] + CCCC(C)O
744.9 ± 0.77	1.327 ± 0.022	CCCCCCCCCCCC [dodecane] + CCCC(C)O
698.54 ± 0.79	0.506 ± 0.009	CCCCCCCC [octane] + CCCC(C)O

same assay, conditions: 303.15 K; 101.33 kPa; Liquid; Sing-around technique in a fixed-path interferometer; x2 = 0

speed of sound [m/s]	SMILES
1215 ± 1	CCCCCCCCCC [decane] + CCCC(C)O
1259 ± 1	CCCCCCCCCCCC [dodecane] + CCCC(C)O
1152 ± 1	CCCCCCCC [octane] + CCCC(C)O

same assay, conditions: 303.15 K; 101.33 kPa; Liquid; x2 = 0

mass density [kg/m3]	viscosity [mPa·s]	SMILES
722.33 ± 0.81	0.787 ± 0.014	CCCCCCCCCC [decane] + CCCC(C)O
741.27 ± 0.78	1.219 ± 0.02	CCCCCCCCCCCC [dodecane] + CCCC(C)O
694.49 ± 0.8	0.478 ± 0.009	CCCCCCCC [octane] + CCCC(C)O

experiment: not given; conditions: 293.15 K; 101.33 kPa; Liquid

SMILES	mass density [kg/m3]	viscosity [mPa·s]
CCCCCCCC [octane]	702.57 ± 0.78	0.538 ± 0.01
CCCC(C)O (stereo not drawn) [pentan-2-ol]	809.04 ± 0.99	4.001 ± 0.075

Now from value to molecule:

mass density [kg/m3]	viscosity [mPa·s]	SMILES
729.89 ± 0.8	0.911 ± 0.016	CCCCCCCCCC [decane]
748.54 ± 0.77	1.454 ± 0.024	CCCCCCCCCCCC [dodecane]

same assay, conditions: 293.15 K; 101.33 kPa; Liquid; Sing-around technique in a fixed-path interferometer

SMILES	speed of sound [m/s]
CCCCCCCC [octane]	1193 ± 1
CCCC(C)O (stereo not drawn) [pentan-2-ol]	1250 ± 2

The next lines start with the values.

speed of sound [m/s]	SMILES
1254 ± 1	CCCCCCCCCC [decane]
1297 ± 1	CCCCCCCCCCCC [dodecane]

same assay, conditions: 298.15 K; 101.33 kPa; Liquid

SMILES	mass density	viscosity [mPa·s]
CCCCCCCC [octane]	698.54 ± 0.79 kg/m3	0.506 ± 0.009
CCCC(C)O (stereo not drawn) [pentan-2-ol]	805.01 ± 0.99 kg/m3 and 805 ± 0.99 kg/m3	3.273 ± 0.063

Other lines, results leading:

mass density	viscosity [mPa·s]	SMILES
726.12 ± 0.8 kg/m3	0.845 ± 0.015	CCCCCCCCCC [decane]
744.9 ± 0.77 kg/m3	1.327 ± 0.022	CCCCCCCCCCCC [dodecane]

same assay, conditions: 298.15 K; 101.33 kPa; Liquid; Sing-around technique in a fixed-path interferometer

SMILES	speed of sound [m/s]
CCCCCCCC [octane]	1173 ± 1
CCCC(C)O (stereo not drawn) [pentan-2-ol]	1232 ± 2

Next, values leading:

speed of sound [m/s]	SMILES
1235 ± 1	CCCCCCCCCC [decane]
1278 ± 1	CCCCCCCCCCCC [dodecane]

same assay, conditions: 303.15 K; 101.33 kPa; Liquid

SMILES	mass density [kg/m3]	viscosity [mPa·s]
CCCCCCCC [octane]	694.49 ± 0.8	0.478 ± 0.009
CCCC(C)O (stereo not drawn) [pentan-2-ol]	800.9 ± 0.99	2.708 ± 0.053

Further lines, results first:

mass density [kg/m3]	viscosity [mPa·s]	SMILES
722.33 ± 0.81	0.787 ± 0.014	CCCCCCCCCC [decane]
741.27 ± 0.78	1.219 ± 0.02	CCCCCCCCCCCC [dodecane]

same assay, conditions: 303.15 K; 101.33 kPa; Liquid; Sing-around technique in a fixed-path interferometer

SMILES	speed of sound [m/s]
CCCCCCCC [octane]	1152 ± 1
CCCC(C)O (stereo not drawn) [pentan-2-ol]	1214 ± 2

The next lines start with the values.

speed of sound [m/s]	SMILES
1215 ± 1	CCCCCCCCCC [decane]
1259 ± 1	CCCCCCCCCCCC [dodecane]
